Reference: ChEMBL document CHEMBL1201862, “PubChem BioAssay data set” (2004)
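Assay format: 96-well plates, 48-hour exposure. The concentration for 50% growth inhibition is given as GI50.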 Calls of active or inactive are those of the source. No stated cut-off is given here; in the data, active = GI50 up to about 1.1 µM and inactive = higher.

Experiments:
Assay in all cases: NCI-60 cell line screen, 48 h
ACHN = system: ACHN
EKVX = system: EKVX
HCC 2998 = system: HCC 2998
HCT-15 = system: HCT-15
IGROV-1 = system: IGROV-1
M14 = system: M14
RXF 393 = system: RXF 393
SK-MEL-5 = system: SK-MEL-5
SK-OV-3 = system: SK-OV-3
SN12C = system: SN12C
SNB-19 = system: SNB-19
SW-620 = system: SW-620
COLO 205 = system: COLO 205
NCI-H522 = system: NCI-H522
OVCAR-4 = system: OVCAR-4
SNB-75 = system: SNB-75
MDA-MB-231 = system: MDA-MB-231
SK-MEL-28 = system: SK-MEL-28

Measured: GI50

CC(=O)N1OC(C)CC1Nc1ccc(Br)cc1 (stereo unspecified)
active: ACHN 0.415 µM | SW-620 0.76 µM
inactive: EKVX > 100 µM | HCC 2998 3.05 µM | IGROV-1 > 100 µM | M14 1.6 µM | RXF 393 > 100 µM | SK-MEL-5 6.31 µM | SK-OV-3 > 100 µM | SN12C 20.8 µM | SNB-19 > 100 µM
> 100 µM: HCT-15

CC(C(=O)COCc1ccccc1)P1(=O)OC(C)(C)CN1C(C)(C)C (stereo unspecified)
inactive: ACHN > 100 µM | COLO 205 > 100 µM | EKVX > 100 µM | HCC 2998 > 100 µM | M14 > 100 µM | NCI-H522 > 100 µM | OVCAR-4 28.8 µM | RXF 393 > 100 µM | SK-MEL-5 > 100 µM | SK-OV-3 > 100 µM | SN12C > 100 µM | SNB-75 54.7 µM | SW-620 > 100 µM
> 100 µM: HCT-15

O=C(Cc1ccccc1)NN1C(=O)/C(=C\c2ccc(O)cc2)S/C1=N\c1ccccc1
inactive: ACHN > 100 µM | COLO 205 > 100 µM | EKVX > 100 µM | HCC 2998 > 100 µM | IGROV-1 > 100 µM | M14 > 100 µM | MDA-MB-231 > 100 µM | OVCAR-4 > 100 µM | RXF 393 > 100 µM | SK-MEL-28 > 100 µM | SK-MEL-5 > 100 µM | SK-OV-3 > 100 µM | SN12C > 100 µM | SNB-19 > 100 µM | SNB-75 50.7 µM | SW-620 > 100 µM
> 100 µM: HCT-15

CC(C)CCNC(=O)c1ccc(CNC(=O)/C=C/c2ccc(OCc3ccccc3)cc2)cc1
> 100 µM: HCT-15
inactive: ACHN > 100 µM | COLO 205 > 100 µM | HCC 2998 > 100 µM | M14 > 100 µM | MDA-MB-231 > 100 µM | OVCAR-4 > 100 µM | RXF 393 > 100 µM | SK-MEL-28 > 100 µM | SK-MEL-5 > 100 µM | SK-OV-3 > 100 µM | SN12C > 100 µM | SNB-19 > 100 µM | SNB-75 > 100 µM | SW-620 > 100 µM

CN1CCc2c(sc3nc(S)nc(S)c23)C1
> 100 µM: HCT-15
inactive: ACHN > 100 µM | COLO 205 > 100 µM | EKVX > 100 µM | IGROV-1 > 100 µM | M14 > 100 µM | MDA-MB-231 39.5 µM | NCI-H522 > 100 µM | OVCAR-4 > 100 µM | RXF 393 > 100 µM | SK-MEL-28 > 100 µM | SK-MEL-5 > 100 µM | SK-OV-3 > 100 µM | SN12C > 100 µM | SNB-19 > 100 µM | SNB-75 > 100 µM | SW-620 > 100 µM

COc1cc(C2c3cc(OC)c(OC)c(O)c3C(=O)C3CCC(=O)N32)cc(OC)c1OC (stereo unspecified)
> 100 µM: HCT-15
inactive: ACHN > 100 µM | COLO 205 24.8 µM | EKVX > 100 µM | HCC 2998 > 100 µM | IGROV-1 > 100 µM | M14 > 100 µM | MDA-MB-231 44.1 µM | NCI-H522 26 µM | OVCAR-4 > 100 µM | SK-MEL-28 > 100 µM | SK-MEL-5 53.1 µM | SK-OV-3 63 µM | SN12C > 100 µM | SNB-19 > 100 µM | SNB-75 63.7 µM | SW-620 35.6 µM

CCCCN(CC)c1nc(C)nc2c1c(C)c(C)n2-c1c(C)cc(C)cc1C [ANTALARMIN]
13.6 µM: HCT-15
inactive: ACHN 14.9 µM | COLO 205 15.6 µM | EKVX 14.2 µM | IGROV-1 14.5 µM | M14 17.9 µM | MDA-MB-231 14.2 µM | NCI-H522 12.8 µM | OVCAR-4 16.3 µM | RXF 393 6.93 µM | SK-MEL-28 15.8 µM | SK-MEL-5 5.21 µM | SK-OV-3 17.1 µM | SN12C 22 µM | SNB-19 16.4 µM | SNB-75 14.3 µM | SW-620 15.7 µM

COc1cc(OC)c2nc(C)c3c(c2c1)OCC3
inactive: ACHN > 100 µM | COLO 205 > 100 µM | EKVX 75.2 µM | HCC 2998 > 100 µM | IGROV-1 > 100 µM | M14 > 100 µM | MDA-MB-231 12.6 µM | NCI-H522 72.9 µM | OVCAR-4 > 100 µM | RXF 393 22.6 µM | SK-MEL-28 > 100 µM | SK-MEL-5 > 100 µM | SN12C 89.3 µM | SNB-19 47.3 µM | SNB-75 61.2 µM | SW-620 > 100 µM
> 100 µM: HCT-15

CC1(C)C[C@H]2C=C(C=O)[C@]34C[C@]3(C(=O)OC4O)[C@H]2C1 (stereo partly specified)
inactive: ACHN 1.53 µM | EKVX 1.61 µM | HCC 2998 2.95 µM | IGROV-1 3.05 µM | M14 1.44 µM | MDA-MB-231 1.48 µM | OVCAR-4 2.55 µM | SK-MEL-28 2.92 µM | SK-MEL-5 1.63 µM | SK-OV-3 16 µM | SN12C 3.86 µM | SNB-19 11.4 µM | SNB-75 1.91 µM | SW-620 3.92 µM
1.43 µM: HCT-15
active: COLO 205 0.374 µM | NCI-H522 0.443 µM

COCCOc1nc(-c2ccccc2)nc2ccccc12
19.2 µM: HCT-15
inactive: ACHN 44.1 µM | COLO 205 32.6 µM | EKVX 55.8 µM | IGROV-1 98.2 µM | M14 27.7 µM | MDA-MB-231 31 µM | NCI-H522 35.3 µM | OVCAR-4 37.3 µM | RXF 393 11.7 µM | SK-MEL-28 53.5 µM | SK-MEL-5 25.8 µM | SK-OV-3 46.7 µM | SN12C 27.5 µM | SNB-19 69.2 µM | SNB-75 60.8 µM | SW-620 34 µM

O=P(O)(O)CN1CCN(CP(=O)(O)O)CCN(CP(=O)(O)O)CCN(CP(=O)(O)O)CC1
27.8 µM: HCT-15
inactive: ACHN > 100 µM | COLO 205 32.4 µM | EKVX > 100 µM | HCC 2998 88.7 µM | IGROV-1 > 100 µM | M14 > 100 µM | MDA-MB-231 > 100 µM | NCI-H522 90.4 µM | OVCAR-4 > 100 µM | RXF 393 47.4 µM | SK-MEL-5 > 10 µM | SN12C > 100 µM | SNB-19 > 100 µM | SNB-75 > 100 µM | SW-620 42.6 µM

O=CC1C(Cl)=Nc2nc3ccccc3n2C1c1ccc([N+](=O)[O-])cc1 (stereo unspecified)
inactive: ACHN 2.43 µM | COLO 205 3.14 µM | EKVX 24.1 µM | HCC 2998 14 µM | IGROV-1 12.3 µM | M14 7.93 µM | MDA-MB-231 14.9 µM | NCI-H522 3.71 µM | OVCAR-4 13.6 µM | RXF 393 2.93 µM | SK-MEL-28 2.51 µM | SK-MEL-5 6.68 µM | SN12C 15.4 µM | SNB-19 16 µM | SNB-75 1.77 µM | SW-620 4.8 µM
2.93 µM: HCT-15

Cc1[nH]nc(-c2ccon2)c1N=O
18.2 µM: HCT-15
inactive: ACHN 15 µM | COLO 205 19.9 µM | EKVX 16.7 µM | IGROV-1 23 µM | M14 20.8 µM | MDA-MB-231 16.8 µM | NCI-H522 20 µM | OVCAR-4 17.5 µM | RXF 393 34.3 µM | SK-MEL-28 20.2 µM | SK-MEL-5 18.2 µM | SK-OV-3 26.3 µM | SN12C 26.7 µM | SNB-19 26.9 µM | SNB-75 32.2 µM | SW-620 21.2 µM

Cn1c(=O)c2c(nc(Cc3ccccc3)n2CC(=O)O)n(C)c1=O
inactive: ACHN > 100 µM | EKVX > 100 µM | HCC 2998 > 100 µM | IGROV-1 > 100 µM | M14 > 100 µM | MDA-MB-231 > 100 µM | NCI-H522 > 100 µM | OVCAR-4 > 100 µM | RXF 393 > 100 µM | SK-MEL-28 > 100 µM | SK-MEL-5 > 100 µM | SN12C > 100 µM | SNB-19 > 100 µM | SNB-75 > 100 µM | SW-620 > 100 µM
> 100 µM: HCT-15

O=C(O)CN1C(=O)OC(c2ccccc2)C1=O (stereo unspecified)
> 100 µM: HCT-15
inactive: ACHN > 100 µM | COLO 205 > 100 µM | EKVX > 100 µM | IGROV-1 > 100 µM | M14 > 100 µM | MDA-MB-231 > 100 µM | NCI-H522 > 100 µM | OVCAR-4 > 100 µM | RXF 393 > 100 µM | SK-MEL-28 > 100 µM | SK-MEL-5 > 100 µM | SK-OV-3 > 100 µM | SN12C > 100 µM | SNB-19 > 100 µM | SNB-75 > 100 µM | SW-620 > 100 µM

COc1cccc(Nc2nc(-c3cccs3)nc3ccc(Br)cc23)c1
inactive: ACHN > 100 µM | COLO 205 > 100 µM | EKVX > 100 µM | IGROV-1 > 100 µM | M14 > 100 µM | MDA-MB-231 37.8 µM | NCI-H522 > 100 µM | SK-MEL-5 55.5 µM | SK-OV-3 70 µM | SN12C > 100 µM | SNB-19 25.5 µM | SW-620 > 100 µM
> 100 µM: HCT-15

CC(C)OP(=O)(OC(C)C)c1ccc2c(c1)OCCOCCOCCOCCO2
> 100 µM: HCT-15
inactive: ACHN > 100 µM | COLO 205 > 100 µM | EKVX > 100 µM | HCC 2998 > 100 µM | IGROV-1 > 100 µM | M14 > 100 µM | MDA-MB-231 > 100 µM | NCI-H522 > 100 µM | SK-MEL-28 > 100 µM | SK-MEL-5 > 100 µM | SK-OV-3 > 100 µM | SN12C > 100 µM | SNB-19 > 100 µM | SNB-75 > 100 µM | SW-620 > 100 µM

Cc1ccc(-c2c(C#N)c(N)nc3c2CCS(=O)(=O)c2ccccc2-3)cc1
> 100 µM: HCT-15
inactive: ACHN 52.4 µM | COLO 205 > 100 µM | HCC 2998 > 100 µM | IGROV-1 34.1 µM | MDA-MB-231 > 100 µM | NCI-H522 > 100 µM | OVCAR-4 40.6 µM | SK-MEL-28 72.4 µM | SK-MEL-5 66.7 µM | SN12C 81.8 µM | SNB-19 50.7 µM | SNB-75 20.6 µM | SW-620 > 100 µM
